Assay results reported in PMC6035882 (Biochimie, 2018).
Like-named read-outs stand apart in the source and are kept apart here.

Experiments:
Assay in all cases: 3H-2-deoxyglucose uptake inhibition in L929 cells
Assay type in all cases: cell-based
[1] = target: T1, GLUT1 (Mus musculus, UniProt P17809)
T1 sequence (P17809 1-492): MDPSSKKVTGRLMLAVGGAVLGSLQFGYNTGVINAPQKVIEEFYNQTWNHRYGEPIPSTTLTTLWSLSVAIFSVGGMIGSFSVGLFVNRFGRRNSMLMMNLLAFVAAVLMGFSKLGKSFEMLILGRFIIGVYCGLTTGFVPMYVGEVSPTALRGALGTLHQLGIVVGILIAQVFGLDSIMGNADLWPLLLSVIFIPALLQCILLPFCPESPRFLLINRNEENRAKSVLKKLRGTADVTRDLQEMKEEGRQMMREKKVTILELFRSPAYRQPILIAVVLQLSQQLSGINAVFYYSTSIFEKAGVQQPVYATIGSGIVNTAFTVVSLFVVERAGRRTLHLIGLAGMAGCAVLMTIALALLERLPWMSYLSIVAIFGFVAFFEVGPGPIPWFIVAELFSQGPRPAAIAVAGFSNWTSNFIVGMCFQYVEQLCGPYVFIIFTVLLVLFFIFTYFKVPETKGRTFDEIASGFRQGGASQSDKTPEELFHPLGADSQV

[2] = target: T1, GLUT1; remark: listed apart in the source
[3] = target: T1, GLUT1; remark: listed apart in the source

Work on `O=C(Oc1cccc(F)c1OC(=O)c1cccc(O)c1)c1cccc(O)c1` [WZB-117] yielded an IC50 [1] of 8.5 µM.

In the case of `O=c1c(O)c(-c2ccc(O)c(O)c2)oc2cc(O)cc(O)c12` [quercetin, 3,3′,4′5,7-pentahydroxyflavone], the IC50 [2] is reported as 8.5 µM.

Work on `Cc1c(NC(=O)c2cc(C(N)=O)nc3cc(F)ccc23)c(C(F)(F)F)nn1Cc1ccc(C#N)cc1` [BAY-876] yielded an IC50 [3] of 0.02 µM.
